From patent US6410566B1, “Cyclic amine derivatives and their use as drugs” (Teijin Limited, priority 2000, dated 2002) come the findings set out here.

Each structure is given as a SMILES string.

In assay [1] the target is T1, binding of human MCP-1 to THP-1 cells (Homo sapiens, UniProt P41597).
T1 construct: endogenous in cells; host or cells: THP-1 (human monocytic leukemia cell line), whole cells
T1 sequence (P41597 1-360 isoform P41597-2): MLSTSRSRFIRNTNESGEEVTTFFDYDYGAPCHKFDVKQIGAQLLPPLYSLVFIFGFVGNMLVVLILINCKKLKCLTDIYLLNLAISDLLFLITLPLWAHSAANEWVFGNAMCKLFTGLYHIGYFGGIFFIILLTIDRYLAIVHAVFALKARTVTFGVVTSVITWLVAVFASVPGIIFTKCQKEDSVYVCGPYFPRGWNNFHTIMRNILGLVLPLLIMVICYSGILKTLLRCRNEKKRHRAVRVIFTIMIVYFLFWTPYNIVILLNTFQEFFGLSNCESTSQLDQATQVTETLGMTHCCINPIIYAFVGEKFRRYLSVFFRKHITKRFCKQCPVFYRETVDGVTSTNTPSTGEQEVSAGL
Briefly: Inhibition of binding of [125I]-labeled baculovirus expressed human MCP-1 to THP-1 cells (Method 1). The following applies: for inhibition at 10 µM: Method 1, at 10 μM; for inhibition at 100 µM: Method 1, at 100 μM. The source says:
Measurement of Inhibition of MCP-1 Binding to THP-1 Cells 1. Construction of recombinant baculovirus carrying the human MCP-1 gene Based on the previously published human MCP-1 gene sequence (for example T. Yoshirnura et al., FEBS Lett., 1989, 244, 487-493), two synthetic DNA primers ([NT] and [NT]) flanked by restriction enzyme sites were used to amplify a DNA fragment from cDNA derived from human endothelial cells (purchased from Kurabow Co.); the amplified fragment was cut with the restriction enzymes (PstI and XbaI), ligated into a transfer vector pVL1393 (Invitrogen Co.), and the resulting vector was co-transfected along with infectious baculovirus into Sf-9 insect cells and the supernatant was plaque assayed to yield human MCP-1 gene baculovirus recombinant. […] Using the method of K. Ishii et al. […] The culture supernatant was affinity purified using a heparin Sepharose column (Pharmacia Co.) and then further purified using reverse phase HPLC (Vydac C18 column) to prepare purified human MCP-1. […] 3-1. […] The test. compound was diluted in the assay buffer and used as the test compound solution. [^125I]-labeled human MCP-1 described above was diluted in assay buffer to 1 mCi/mL and used as the labeled ligand solution. In a 96 well filter plate (Millipore Co.), 25 μL of test compound solution, 25 μL of labeled ligand solution and 50 μL of cell suspension were aliquoted into each well in this order, stirred (total reaction volume 100 μL), and incubated for one hour at 18° C. After the reaction, the reaction solution was filtered, and the filter was washed twice with 200 μL of cold PBS (200 μL of cold PBS was added and then filtered). The filter was air-dried and 25 μL of liquid sciatillator was added into each well. The radioactivity retained by the cells on the filter were measured using TopCount (Packard Instrument Co.). To calculate the ability of test compound to inhibit binding of human MCP-1 to THP-1 cells, non-specific binding determined by adding 100 ng of unlabeled human MCP-1 in place of the test compound was subtracted, while the counts with no test compound added was taken as 100%. Inhibition (%)=(1-(A-B)/(C-B))×100 (A, counts with test compound added; B, counts with 100 ng of unlabeled human MCP-1 added; C, counts with [^125I]-labeled human MCP-1 added).

For assay [2], the target named is T1, binding of human MCP-1 to THP-1 cells. Briefly: Inhibition of binding of [125I]-labeled baculovirus expressed human MCP-1 to THP-1 cells (Method 2). The following applies: Method 2, at 1 μM. The source says: 1. Construction of recombinant baculovirus carrying the human MCP-1 gene
Based on the previously published human MCP-1 gene sequence (for example T. Yoshirnura et al., FEBS Lett., 1989, 244, 487-493), two synthetic DNA primers (5′-[…]-3′ and 5′-[…]-3′) flanked by restriction enzyme sites were used to amplify a DNA fragment from cDNA derived from human endothelial cells (purchased from Kurabow Co.); the amplified fragment was cut with the restriction enzymes (PstI and XbaI), ligated into a transfer vector pVL1393 (Invitrogen Co.), and the resulting vector was co-transfected along with infectious baculovirus into Sf-9 insect cells and the supernatant was plaque assayed to yield human MCP-1 gene baculovirus recombinant.
2. Synthesis of [^125I]-labeled human MCP-1 expressed in baculovirus
Using the method of K. Ishii et al. (Biochem Biophys Research Communications, 1995, 206, 955-961), 5×10^6 Sf-6 insect cells was infected with 5×10^7 PFU (plaque forming units) of the above human MCP-1 recombinant baculovirus and cultured for 7 days in Ex-Cell 401 medium. The culture supernatant was affinity purified using a heparin Sepharose column (Pharmacia Co.) and then further purified using reverse phase HPLC (Vydac C18 column) to prepare purified human MCP-1. The purified human MCP-1 was protein labeled by Amersham Co. using the Bolton Hunter method to yield [^125I]-labeled baculovirus expressed human MCP-1 (specific activity 2000 Ci/mmol).
3-2. Measurement of inhibition of binding of [^125I]-labeled baculovirus expressed human MCP-1 to THP-1 cells (Method 2)
Human monocytic leukemia cell line THP-1 was suspended in assay buffer (50 mM HEPES, pH 7.4, 1.0 mM CaCl2, 5.0% mM MgCl2, 0.5% BSA) to give a cell suspension of a concentration of 1×10^7 cells/mL. The test compound was diluted in the assay buffer and used as the test compound solution. [^125I]-labeled human MCP-1 described above was diluted in assay buffer to 1 mCi/mL and used as the labeled ligand solution. In a 96 well filter plate (Millipore Co.), 25 μL of test compound solution, 25 μL of labeled ligand solution and 50 μL of cell suspension were aliquoted into each well in this order, stirred (total reaction volume 100 μL), and incubated for one hour at 18° C.
After the reaction, the reaction solution was filtered, and the filter was washed twice with 200 μL of cold PBS (200 μL of cold PBS was added and then filtered). The filter was air-dried and 25 μL of liquid scintillator was added into each well. The radioactivity retained by the cells on the filter were measured using TopCount (Packard Instrument Co.).
To calculate the ability of test compound to inhibit binding of human MCP-1 to THP-1 cells, non-specific binding determined by adding 100 ng of unlabeled human MCP-1 in place of the test compound was subtracted, while the counts with no test compound added was taken as 100%.
Inhibition (%)={1−(A−B)/(C−B)}×100
(A, counts with test compound added; B, counts with 100 ng of unlabeled human MCP-1 added; C, counts with [^125I]-labeled human MCP-1 added).

The test system of a further assay is THP-1 cells. Briefly: Inhibition of cell chemotaxis caused by MCP-1. Format: cell-based. As to conditions: Homo sapiens, MCP-1 20 ng/mL, read-out: inhibition of cell migration IC50. The procedure:
Measurement of Inhibition of Cell Chemotaxis
In order to determine the inhibition of cell chemotaxis by the compounds of this invention, we measured cell chemotaxis caused by monocyte chemotactic factor MCP-1 using the human monocytic leukemia cell line THP-1 as the chemotactic cell according to the method of Fall et al. (J. Immunol. Methods, 190, 33,239-247). 2×10^6 cells/mL of THP-1 cells (suspended in RPMI-1640 (Flow Laboratories Co.)+10% FCS) was placed in the upper chamber (200 μL) of a 96 well micro-chemotaxis chamber (Neuroprobe; registered tradename), and human recombinant MCP-1 in a same solution (Peprotech Co.) at a final concentration of 20 ng/mL was placed in the lower chamber, with a polycarbonate filter (PVP-free, Neuroprobe; registered tradename) placed between the two chambers. These were incubated at 37° C. for 2 hr in 5% CO2.
The filter was removed, and the cells which had migrated to the underside of the filter was fixed, stained using Diff Quick (Kokusai Shiyaku Co.) and then quantitated using a plate reader (Molecular Device Co.) at a wavelength of 550 nm to determine the index of cell migration as a mean of 3 wells. In addition, test compounds were placed in the upper and lower chambers along with THP-1 and MCP-1, respectively, and the inhibition of cell migration (inhibition IC50 (μM)) was determined.

Compound `O=C(CNC(=O)c1cccc(C(F)(F)F)c1)NCC1CCN(Cc2ccc(NC(=O)c3ccccc3)cc2)CC1` [Compound No. 519, 1-{4-(Benzoylamino)benzyl}-4-[{N-(3-(trifluoromethyl)benzoyl)glycyl}aminomethyl]piperidine] yielded an inhibition at 10 µM in assay [1] of 20 to 50%.
For the compound `O=C(CNC(=O)Nc1ccc(C(F)(F)F)cc1)NCC1CCN(Cc2ccc(Cl)cc2)CC1` [Compound No. 852, 1-(4-Chlorobenzyl)-4-[{2-(3-(4-trifluoromethylphenyl)ureido)acetylamino}methyl]piperidine], in assay [1], the inhibition at 100 µM was > 80%.
In assay [1], `NC(=O)c1ccc(CN2CCC(CNC(=O)CNC(=O)c3cccc(C(F)(F)F)c3)CC2)cc1` [Compound No. 925, 1-(4-Carbamoylbenzyl)-4-[{N-(3-(trifluoromethyl)benzoyl)glycyl}aminomethyl]piperidine] returned an inhibition at 10 µM of 20 to 50%.
In assay [1], `CN(C)c1ccc(CN2CCC(CNC(=O)CNC(=O)c3cccc(C(F)(F)F)c3)CC2)cc1` [Compound No. 937, 1-{4-(Dimethylamino)benzyl}-4-[{N-(3-(trifluoromethyl)benzoyl)glycyl}aminomethyl]piperidine] yielded an inhibition at 10 µM of 50 to 80%.
As for `C=Cc1ccc(CN2CC[C@@H](NC(=O)CNC(=O)c3cc(C(F)(F)F)ccc3N)C2)cc1` [Compound No. 1701, (R)-3-[{N-(2-Amino-5-(trifluoromethyl)benzoyl)glycyl}amino]-1-(4-vinylbenzyl)pyrrolidine], the inhibition at 1 µM in assay [2] was > 80%. For the same compound, the IC50 with THP-1 cells was < 100 nM.
In the same order, the values of `COc1ccc(CN2CC[C@@H](NC(=O)CNC(=O)c3cc(OC(F)(F)F)ccc3N)C2)cc1O` [Compound No. 1896, (R)-3-[{N-(2-Amino-5-trifluoromethoxybenzoyl)glycyl}amino]-1-(3-hydroxy-4-methoxybenzyl)pyrrolidine] are > 80% and < 100 nM.
On the same counts, the results for `Nc1cc(Cl)ccc1CN1CC[C@@H](NC(=O)CNC(=O)c2cc(OC(F)(F)F)ccc2N)C1` [Compound No. 1921, (R)-3-[{N-(2-Amino-5-trifluoromethoxybenzoyl)glycyl}amino]-1-(2-amino-4-chlorobenzyl)pyrrolidine] are > 80% and < 100 nM.
On the same counts, the results for `Cc1ccc(CN2CCC(CNC(=O)CNC(=O)c3cc(F)c(F)cc3N)CC2)cc1N` [Compound No. 2114, 4-[{N-(2-Amino-4,5-difluorobenzoyl)glycyl}aminomethyl]-1-(3-amino-4-methylbenzyl)piperidine] are > 80% and < 100 nM.
For the compound `Nc1cc(CN2CC[C@@H](NC(=O)CNC(=O)c3cc(C(F)(F)F)ccc3N)C2)ccc1Cl` [Compound No. 2132, (R)-1-(3-Amino-4-chlorobenzyl)-3-[{N-(2-amino-5-trifluoromethylbenzoyl)glycyl}amino]pyrrolidine], in assay [2], the inhibition at 1 µM is > 80%. Also, in the assay on THP-1 cells, the IC50 is < 100 nM.
For `Nc1cc(CN2CCC(CNC(=O)CNC(=O)c3cc(F)c(F)cc3N)CC2)ccc1O` [Compound No. 2141, 4-[{N-(2-amino-4,5-difluorobenzoyl)glycyl}aminomethyl]-1-(3-amino-4-hydroxybenzyl)piperidine], the IC50 with THP-1 cells was < 100 nM.
As to `CNc1cc(CN2CC[C@@H](NC(=O)CNC(=O)c3cc(C(F)(F)F)ccc3N)C2)ccc1O` [Compound No. 2158, (R)-3-[{N-(2-Amino-5-trifluoromethylbenzoyl)glycyl}amino]-1-(3-methylamino-4-hydroxybenzyl)pyrrolidine], in the assay on THP-1 cells, the IC50 is < 100 nM.
On to `O=C(CNC(=O)c1cc(C(F)(F)F)cc(C(F)(F)F)c1)N[C@H]1CCN(Cc2ccc(Cl)cc2)C1` [compound 5, (S)-3-[N-{3,5-Bis (trifluoromethyl)benzoyl}glycyl]amino-1-(4-chlorobenzyl)pyrrolidine], for which the inhibition at 100 µM in assay [1] is > 80%.
Turning to `Cc1noc(C)c1CN1CC[C@@H](NC(=O)CNC(=O)c2cc(F)cc(C(F)(F)F)c2)C1` [compound 1191, (R)-3-[N-(3-Fluoro-5(trifluoromethyl)benzoyl)glycyl]amino-1-(3,5-dimethylisoxazol-4-ylmethyl)pyrrolidine], the inhibition at 1 µM in assay [2] was > 80%. Also, in the assay with THP-1 cells, the IC50 is < 100 nM.
